Test results as given in article PMC8725837, “2-Arylquinolines as novel anticancer agents with dual EGFR/FAK kinase inhibitory activity: synthesis, biological evaluation, and molecular modelling insights” (Journal of Enzyme Inhibition and Medicinal Chemistry, 2021).

Key:
[1] = target: T1, VEGFR-2 (Homo sapiens, UniProt P35968); assay: Z`-LYTE kinase profiling, VEGFR-2; assay type: biochemical
T1 construct: purchased Invitrogen/Life Technologies

[2] = target: T2, IGF-1R (Homo sapiens, UniProt P08069); assay: Z`-LYTE kinase profiling, IGF-1R; assay type: biochemical
T2 construct: purchased Invitrogen/Life Technologies

[3] = target: T3, HER-2 (Homo sapiens, UniProt P04626); assay: Z`-LYTE kinase profiling, HER-2; assay type: biochemical
T3 construct: purchased Invitrogen/Life Technologies

[4] = target: T4, BTK (Homo sapiens, UniProt Q06187); assay: Z`-LYTE kinase profiling, BTK; assay type: biochemical
T4 construct: purchased Invitrogen/Life Technologies

[5] = target: T5, VEGFR-1 (Homo sapiens, UniProt P17948); assay: Z`-LYTE kinase profiling, VEGFR-1; assay type: biochemical
T5 construct: purchased Invitrogen/Life Technologies

[6] = tested on: HCT-116 colorectal cancer cell line; assay: MTT antiproliferative assay, HCT-116; settings: for GI% HCT-116: 10 µM, 24 h, MTT; for IC50: Homo sapiens, HCT-116, 24 h, read-out: IC50 HCT-116 (half maximal growth inhibitory concentration)
Description: After the incubation of the tested compounds for 24 h, the percent growth inhibition (GI%) was calculated.
Cells were seeded at 1 × 10^4 cells/well and cultured overnight in a 96-well plate. […] Then, 150 µl DMSO was used to solubilise MTT formazan crystals. Finally, the plates were shaken, and the optical density was determined at 570 nm using ELISA plate reader. At least, three independent experiments were performed. Percentage of growth inhibition was determined as (1-[OD of treated cells/OD of control cells]). […] The IC50 values were calculated using Prism v0.8 software (GraphPad Software Inc., La Jolla, CA).

[7] = tested on: MCF-7 breast cancer cell line; assay: MTT antiproliferative assay, MCF-7; assay type: cell-based; settings: 10 µM, 24 h
Description: (§1) At least, three independent experiments were performed.

[8] = tested on: HeLa cervical cancer cell line; assay: MTT antiproliferative assay, HeLa; assay type: cell-based; settings: 10 µM, 24 h
Description: as §1

[9] = tested on: MDMBA-231 breast cancer cell line; assay: MTT antiproliferative assay, MDMBA-231; assay type: cell-based; settings: 10 µM, 24 h
Description: as §1

[10] = target: T6, recombinant human TOP1 (Homo sapiens, UniProt P11387); assay: Topoisomerase I-mediated DNA cleavage assay; settings: tested at 0.1, 1, 10, 100 µM
T6 sequence (P11387 1-765): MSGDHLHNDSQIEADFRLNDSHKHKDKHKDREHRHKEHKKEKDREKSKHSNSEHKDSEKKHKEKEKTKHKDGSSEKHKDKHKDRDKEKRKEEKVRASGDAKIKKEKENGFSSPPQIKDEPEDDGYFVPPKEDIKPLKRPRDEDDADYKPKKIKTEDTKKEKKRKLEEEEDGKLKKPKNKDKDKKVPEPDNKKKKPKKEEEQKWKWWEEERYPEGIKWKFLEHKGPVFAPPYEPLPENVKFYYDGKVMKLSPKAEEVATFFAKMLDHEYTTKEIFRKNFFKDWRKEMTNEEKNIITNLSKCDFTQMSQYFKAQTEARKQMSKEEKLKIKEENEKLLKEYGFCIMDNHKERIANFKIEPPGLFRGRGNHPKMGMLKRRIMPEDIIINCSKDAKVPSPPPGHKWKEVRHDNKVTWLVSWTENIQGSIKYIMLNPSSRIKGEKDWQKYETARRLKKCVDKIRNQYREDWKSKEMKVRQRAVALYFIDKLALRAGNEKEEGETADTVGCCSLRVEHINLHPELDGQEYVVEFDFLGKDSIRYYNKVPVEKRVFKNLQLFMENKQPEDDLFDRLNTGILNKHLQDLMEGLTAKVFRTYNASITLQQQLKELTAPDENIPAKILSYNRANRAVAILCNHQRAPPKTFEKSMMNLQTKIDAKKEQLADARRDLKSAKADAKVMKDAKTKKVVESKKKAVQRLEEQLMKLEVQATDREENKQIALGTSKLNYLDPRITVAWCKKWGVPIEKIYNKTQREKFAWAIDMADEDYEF
Description: Radiolabeled DNA was incubated with recombinant human TOP1 in 20 µL reaction buffer (10 mmol/L Tris-HCl, pH 7.5, 50 mmol/L KCl, 5 mmol/L MgCl2, 0.1 mmol/L EDTA, and 15 µg/mL BSA) at 30 °C for 20 min in the presence of the indicated drug concentrations. Reactions were terminated by adding SDS (0.5% final concentration) followed by the addition of two volumes of loading dye (80% formamide, 10 mmol/L sodium hydroxide, 1 mmol/L sodium EDTA, 0.1% xylene cyanol, and 0.1% bromophenol blue). Aliquots of reaction mixtures were subjected to 20% denaturing PAGE. Gels were dried and visualised by using PhosphorImager and Image Quant software (Molecular Dynamics).

[11] = tested on: DLD-1 colorectal cancer cell line; assay: MTT antiproliferative assay, DLD-1; settings: for GI% DLD1: 10 µM, 24 h, MTT; for IC50: Homo sapiens, DLD-1, 24 h, read-out: IC50 DLD1 (half maximal growth inhibitory concentration)
[12] = target: EGFR (Homo sapiens, UniProt P00533); assay: Z`-LYTE kinase inhibitory assay, EGFR
[13] = target: FAK (Homo sapiens, UniProt Q05397); assay: Z`-LYTE kinase inhibitory assay, FAK
[14] = target: T7, c-Src (Homo sapiens, UniProt P12931); assay: Z`-LYTE kinase profiling, c-Src; assay type: biochemical
T7 construct: purchased Invitrogen/Life Technologies

[15] = target: T8, FRK (Homo sapiens, UniProt P42685); assay: Z`-LYTE kinase profiling, FRK; assay type: biochemical
T8 construct: purchased Invitrogen/Life Technologies
T8 sequence (P42685 whole entry): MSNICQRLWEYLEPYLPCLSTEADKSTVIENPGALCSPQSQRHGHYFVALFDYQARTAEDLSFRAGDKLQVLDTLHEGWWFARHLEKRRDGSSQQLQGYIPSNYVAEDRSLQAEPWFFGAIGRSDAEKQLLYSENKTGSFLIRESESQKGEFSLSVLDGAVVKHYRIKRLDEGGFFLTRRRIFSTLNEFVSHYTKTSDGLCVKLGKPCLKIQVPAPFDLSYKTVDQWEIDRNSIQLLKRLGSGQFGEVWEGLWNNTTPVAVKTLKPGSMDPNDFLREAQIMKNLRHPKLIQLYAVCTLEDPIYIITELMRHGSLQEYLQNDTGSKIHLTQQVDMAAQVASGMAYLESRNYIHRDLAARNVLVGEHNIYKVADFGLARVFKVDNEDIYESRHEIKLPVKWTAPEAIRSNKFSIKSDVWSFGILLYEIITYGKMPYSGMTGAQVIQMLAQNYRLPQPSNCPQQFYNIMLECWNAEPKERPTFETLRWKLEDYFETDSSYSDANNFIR

T3 sequence (P04626 23-1255): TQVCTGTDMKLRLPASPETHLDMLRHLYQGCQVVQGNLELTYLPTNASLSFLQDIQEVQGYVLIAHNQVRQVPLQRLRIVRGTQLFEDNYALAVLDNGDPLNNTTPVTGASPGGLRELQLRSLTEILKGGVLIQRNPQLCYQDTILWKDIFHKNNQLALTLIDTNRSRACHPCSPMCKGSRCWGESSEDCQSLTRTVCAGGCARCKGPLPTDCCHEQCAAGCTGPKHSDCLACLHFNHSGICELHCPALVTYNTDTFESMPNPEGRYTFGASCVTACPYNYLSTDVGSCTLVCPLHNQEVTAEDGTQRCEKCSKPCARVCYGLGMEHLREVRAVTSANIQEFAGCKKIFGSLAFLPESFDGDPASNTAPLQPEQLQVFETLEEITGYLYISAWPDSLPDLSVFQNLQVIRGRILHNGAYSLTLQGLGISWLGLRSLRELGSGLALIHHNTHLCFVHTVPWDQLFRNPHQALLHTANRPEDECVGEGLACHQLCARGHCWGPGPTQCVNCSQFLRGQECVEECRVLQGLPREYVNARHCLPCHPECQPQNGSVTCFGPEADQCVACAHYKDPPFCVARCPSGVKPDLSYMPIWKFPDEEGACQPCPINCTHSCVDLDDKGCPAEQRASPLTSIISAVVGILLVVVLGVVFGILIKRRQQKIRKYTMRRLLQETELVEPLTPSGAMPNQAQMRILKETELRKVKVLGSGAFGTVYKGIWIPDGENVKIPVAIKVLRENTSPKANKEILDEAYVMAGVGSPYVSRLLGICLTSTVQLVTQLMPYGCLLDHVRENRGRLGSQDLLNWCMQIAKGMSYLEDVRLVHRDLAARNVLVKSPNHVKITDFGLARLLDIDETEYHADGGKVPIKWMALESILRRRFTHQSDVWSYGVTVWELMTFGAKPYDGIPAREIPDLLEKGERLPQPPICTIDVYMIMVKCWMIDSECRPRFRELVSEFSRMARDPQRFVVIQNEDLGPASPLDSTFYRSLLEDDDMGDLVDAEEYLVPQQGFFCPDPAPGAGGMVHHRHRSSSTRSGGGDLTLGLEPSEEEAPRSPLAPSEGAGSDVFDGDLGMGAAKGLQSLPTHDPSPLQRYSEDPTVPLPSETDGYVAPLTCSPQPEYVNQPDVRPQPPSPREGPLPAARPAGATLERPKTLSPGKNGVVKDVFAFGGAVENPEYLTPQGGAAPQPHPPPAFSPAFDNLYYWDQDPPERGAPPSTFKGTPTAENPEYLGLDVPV
EGFR, sequence (P00533 25-1210): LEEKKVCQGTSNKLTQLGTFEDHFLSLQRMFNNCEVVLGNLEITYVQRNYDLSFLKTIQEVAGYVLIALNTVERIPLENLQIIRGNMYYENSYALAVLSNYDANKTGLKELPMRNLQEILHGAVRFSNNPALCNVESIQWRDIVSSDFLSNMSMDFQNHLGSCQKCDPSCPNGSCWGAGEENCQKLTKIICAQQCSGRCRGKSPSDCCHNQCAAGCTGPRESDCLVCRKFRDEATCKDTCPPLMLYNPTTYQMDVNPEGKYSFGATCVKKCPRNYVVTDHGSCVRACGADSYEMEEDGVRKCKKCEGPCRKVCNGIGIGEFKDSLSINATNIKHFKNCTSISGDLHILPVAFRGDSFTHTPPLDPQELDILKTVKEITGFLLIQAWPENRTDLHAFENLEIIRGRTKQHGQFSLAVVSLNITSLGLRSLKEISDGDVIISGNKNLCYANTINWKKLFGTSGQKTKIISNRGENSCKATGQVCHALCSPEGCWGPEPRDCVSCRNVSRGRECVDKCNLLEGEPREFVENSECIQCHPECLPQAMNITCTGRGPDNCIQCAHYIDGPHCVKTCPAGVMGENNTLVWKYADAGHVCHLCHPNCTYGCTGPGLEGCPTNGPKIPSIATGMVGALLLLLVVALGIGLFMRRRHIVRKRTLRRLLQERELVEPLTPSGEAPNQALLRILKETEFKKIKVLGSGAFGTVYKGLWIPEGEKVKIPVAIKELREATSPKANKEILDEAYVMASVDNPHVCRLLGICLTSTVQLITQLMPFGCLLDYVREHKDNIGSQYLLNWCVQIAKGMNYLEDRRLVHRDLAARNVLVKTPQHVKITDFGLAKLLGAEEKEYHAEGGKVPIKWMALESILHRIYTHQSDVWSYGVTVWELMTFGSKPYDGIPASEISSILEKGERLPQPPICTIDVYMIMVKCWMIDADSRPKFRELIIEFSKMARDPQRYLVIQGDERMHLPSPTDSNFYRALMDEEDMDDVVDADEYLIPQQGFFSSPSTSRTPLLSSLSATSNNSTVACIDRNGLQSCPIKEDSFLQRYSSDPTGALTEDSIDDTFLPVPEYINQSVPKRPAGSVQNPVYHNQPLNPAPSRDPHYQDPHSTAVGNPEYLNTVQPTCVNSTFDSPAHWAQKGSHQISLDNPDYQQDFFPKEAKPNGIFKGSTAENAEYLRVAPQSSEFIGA
T7 sequence (P12931 whole entry): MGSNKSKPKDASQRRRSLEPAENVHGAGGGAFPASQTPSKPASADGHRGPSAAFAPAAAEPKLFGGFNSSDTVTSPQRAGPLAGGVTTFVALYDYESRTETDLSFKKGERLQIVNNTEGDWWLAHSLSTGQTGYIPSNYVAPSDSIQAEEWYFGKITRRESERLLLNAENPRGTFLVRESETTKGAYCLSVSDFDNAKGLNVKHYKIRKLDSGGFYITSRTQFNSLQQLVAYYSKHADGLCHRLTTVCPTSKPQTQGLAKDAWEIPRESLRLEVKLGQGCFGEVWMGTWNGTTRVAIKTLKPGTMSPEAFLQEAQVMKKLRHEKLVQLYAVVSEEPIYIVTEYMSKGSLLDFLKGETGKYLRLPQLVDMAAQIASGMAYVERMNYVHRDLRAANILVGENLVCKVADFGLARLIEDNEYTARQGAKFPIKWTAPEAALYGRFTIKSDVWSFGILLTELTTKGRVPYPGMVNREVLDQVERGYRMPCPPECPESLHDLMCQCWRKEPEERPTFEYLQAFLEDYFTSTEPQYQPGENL
T2 sequence (P08069 31-1367): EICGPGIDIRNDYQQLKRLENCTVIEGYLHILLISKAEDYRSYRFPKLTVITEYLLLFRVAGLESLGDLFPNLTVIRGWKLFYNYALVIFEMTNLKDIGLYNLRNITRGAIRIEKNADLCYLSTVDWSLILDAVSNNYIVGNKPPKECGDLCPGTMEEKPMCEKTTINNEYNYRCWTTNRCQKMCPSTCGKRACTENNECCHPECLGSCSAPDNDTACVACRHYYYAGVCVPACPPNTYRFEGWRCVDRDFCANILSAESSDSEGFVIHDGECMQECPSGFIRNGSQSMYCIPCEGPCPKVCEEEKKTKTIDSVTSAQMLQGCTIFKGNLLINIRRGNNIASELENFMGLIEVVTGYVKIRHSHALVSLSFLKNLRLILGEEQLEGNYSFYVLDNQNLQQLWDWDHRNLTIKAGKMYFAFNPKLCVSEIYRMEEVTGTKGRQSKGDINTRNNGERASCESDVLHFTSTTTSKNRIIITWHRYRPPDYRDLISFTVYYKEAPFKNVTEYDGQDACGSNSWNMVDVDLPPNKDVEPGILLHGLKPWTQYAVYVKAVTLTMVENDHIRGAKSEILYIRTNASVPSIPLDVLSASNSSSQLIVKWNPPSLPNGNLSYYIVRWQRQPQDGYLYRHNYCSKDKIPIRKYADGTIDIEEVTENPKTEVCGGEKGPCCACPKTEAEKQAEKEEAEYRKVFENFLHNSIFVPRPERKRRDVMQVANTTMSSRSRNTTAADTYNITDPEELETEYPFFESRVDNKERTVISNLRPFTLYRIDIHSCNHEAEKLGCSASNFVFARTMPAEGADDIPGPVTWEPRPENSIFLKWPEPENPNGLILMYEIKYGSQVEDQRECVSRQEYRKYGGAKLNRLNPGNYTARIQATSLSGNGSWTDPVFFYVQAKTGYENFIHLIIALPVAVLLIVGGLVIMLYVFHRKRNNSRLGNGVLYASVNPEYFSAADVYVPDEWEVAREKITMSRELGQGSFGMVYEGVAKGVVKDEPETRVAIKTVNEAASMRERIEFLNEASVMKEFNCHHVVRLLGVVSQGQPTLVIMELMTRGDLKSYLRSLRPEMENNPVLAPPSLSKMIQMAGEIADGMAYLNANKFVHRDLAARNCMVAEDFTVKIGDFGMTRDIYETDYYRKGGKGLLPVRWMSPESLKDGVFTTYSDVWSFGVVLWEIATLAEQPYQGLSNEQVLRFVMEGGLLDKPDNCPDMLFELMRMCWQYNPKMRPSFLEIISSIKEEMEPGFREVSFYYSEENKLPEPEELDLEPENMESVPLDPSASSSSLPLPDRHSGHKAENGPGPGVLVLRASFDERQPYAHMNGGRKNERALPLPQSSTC

Row | SMILES | IC50 [1] [µM] | IC50 [2] [µM] | IC50 [3] [µM] | IC50 [4] [µM] | IC50 [5] [µM] | GI% HCT-116 [6] [%] | IC50 [6] [µM] | melting point [°C] | GI% MCF-7 [7] [%] | GI% Hela [8] [%] | GI% MDMBA-231 [9] [%] | TOP1 inhibitory activity (semiquantitative score relative to 1 µM CPT) [10] | GI% DLD1 [11] [%] | IC50 [11] [µM] | IC50 [12] [µM] | IC50 [13] [µM] | IC50 [14] [µM] | IC50 [15] [µM] | fold decreased activity than Gefitinib, EGFR ([12]; from IC50 values) [fold]
1 | COc1cc2nc(-c3ccc(Cl)cc3)cc(OCCCN3CCN(C)CC3)c2cc1OC [6a, 2-(4-chlorophenyl)-6,7-dimethoxy-4–(3-(4-methylpiperazin-1-yl)propoxy)quinoline] | 0.268 | 1.02 | 1.24 | 1.59 | 0.0953 | 31.34 | 65.4 ± 4.37 | 140 to 142 | 17.34 | 20.15 | 9.38 | −/+ (−/+: 0–25% 1 µM CPT) | 22.56 | > 100 | 0.143 ± 0.00254 | 0.2144 ± 0.00109 | 0.783 | 0.825 | 
2 | COc1cc2nc(-c3ccc(Cl)cc3)cc(OCCCNC3CCCCC3)c2cc1OC [6b, N-(3-((2–(4-chlorophenyl)-6,7-dimethoxyquinolin-4-yl)oxy)propyl)cyclohexanamine] | 6.74 | 8.06 | 0.123 | 8.52 | 3.33 | 42.81 | 16.8 ± 1.56 | 118 to 120 | 23.49 | 12.81 | 19.67 | −/+ (−/+: 0–25% 1 µM CPT) | 36.25 | 19.4 ± 2.15 | 0.0453 ± 0.00536 | 0.0982 ± 0.00467 | 2.5 | 9.15 | 
3 | COc1cc2nc(-c3ccc(Cl)cc3)cc(OCCCNC3CCN(C)CC3)c2cc1OC [6c, N-(3-((2–(4-chlorophenyl)-6,7-dimethoxyquinolin-4-yl)oxy)propyl)-1-methylpiperidin-4-amine] | 0.405 | 2.03 | 1.38 | 2.25 | 0.606 | 41.36 | 13.7 ± 1.29 | 124 to 126 | 15.76 | 4.96 | 19.38 | −/+ (−/+: 0–25% 1 µM CPT) | 28.22 | 47 ± 2.46 | 0.0857 ± 0.00646 | 0.0457 ± 0.0034 | 1.5 | 1.56 | 2
4 | COc1cc2nc(-c3ccc(Cl)cc3)cc(OCCCNCC3CCCO3)c2cc1OC (stereo not shown) [6d, 3-((2–(4-chlorophenyl)-6,7-dimethoxyquinolin-4-yl)oxy)-N-((tetrahydrofuran-2-yl)methy-l)propan-1-amine] | 0.492 | 1.59 | 0.695 | 1.37 | 0.303 | 82.61 | 4.67 ± 0.85 | 108 to 110 | 71.97 | 26.98 | 63.39 | −/+ (−/+: 0–25% 1 µM CPT) | 75.64 | 8.15 ± 1.05 | 0.0464 ± 0.00409 | 0.037 ± 0.00234 | 0.408 | 0.507 | 
5 | COc1cc2nc(-c3ccc(Cl)cc3)cc(OCCCn3ccnc3)c2cc1OC [6e, 4-(3-(1H-imidazol-1-yl)propoxy)-2–(4-chlorophenyl)-6,7-dimethoxyquinoline] | 3.76 | 2.16 | 0.0821 | 4.94 | 7.33 | 22.03 | > 100 | 209 to 211 | 5.34 | 22.36 | 4.67 | −/+ (−/+: 0–25% 1 µM CPT) | 15.79 | > 100 | 0.157 ± 0.0114 | 0.211 ± 0.00896 | 0.198 | 9 | 
6 | COc1cc2nc(-c3ccc(C(F)(F)F)cc3)cc(OCCCNC3CCCCC3)c2cc1OC [6g, N-(3-((6,7-dimethoxy-2–(4-(trifluoromethyl)phenyl)quinolin-4-yl)oxy)propyl)cyclohexan-amine] | 0.997 | 1.48 | 0.455 | 4.76 | 1.11 | 22.16 | 46.8 ± 3.16 | 131 to 133 | 76.38 | 46.28 | 48.15 | 0 | 25.36 | 75.4 ± 5.46 | 0.365 ± 0.0148 | 0.146 ± 0.0105 | 2.76 | 1.28 | 
7 | COc1cc2nc(-c3ccc(C(F)(F)F)cc3)cc(OCCCn3ccnc3)c2cc1OC [6j, 4-(3-(1H-imidazol-1-yl)propoxy)-6,7-dimethoxy-2–(4-(trifluoromethyl)phenyl)quinoline] | 0.392 | 0.219 | 0.206 | 0.185 | 0.769 | 2.46 | > 100 | 217 to 219 | 14.67 | 5.67 | 8.42 | 0 | 6.31 | > 100 | 0.258 ± 0.0119 | 0.186 ± 0.00622 | 0.186 | 0.139 | 
8 | COc1cc2nc(-c3ccc(C)cc3)cc(OCCCN3CCN(C)CC3)c2cc1OC [6k, 6,7-dimethoxy-4–(3-(4-methylpiperazin-1-yl)propoxy)-2-(p-tolyl)quinoline] | 5.96 | 2.4 | 1.35 | 2.76 | 5.04 | 22.15 | > 100 | 128 to 130 | 17.49 | 11.32 | 8.64 | 0 | 18.69 | > 100 | 0.41 ± 0.0127 | 0.158 ± 0.00873 | 6.45 | 3.17 | 
9 | COc1cc2nc(-c3ccc(C)cc3)cc(OCCCNC3CCCCC3)c2cc1OC [6l, N-(3-((6,7-dimethoxy-2-(p-tolyl)quinolin-4-yl)oxy)propyl)cyclohexanamine] | 2.4 | 1.82 | 0.756 | 1.61 | 0.346 | 69.15 | 8.11 ± 1.04 | 126 to 128 | 44.71 | 34.29 | 38.36 | −/+ (−/+: 0–25% 1 µM CPT) | 75.34 | 6.34 ± 0.52 | 0.0349 ± 0.00376 | 0.0264 ± 0.00281 | 1.92 | 0.743 | 
10 | COc1cc2ncnc(Nc3ccc(F)c(Cl)c3)c2cc1OCCCN1CCOCC1 [Gefitinib, reference compound] |  |  |  |  |  |  | 6.94 ± 1.24 |  |  |  |  |  |  |  |  |  |  |  | 
11 | CNC(=O)c1ccccc1Nc1nc(Nc2ccc(N3CCOCC3)cc2OC)ncc1Cl [TAE226, reference compound] |  |  |  |  |  |  | 0.17 ± 0.04 |  |  |  |  |  |  | 0.12 ± 0.05 |  |  |  |  | 
